Experimental data: patent US10328082B2, “Methods of use and combinations” (Pfizer Inc., priority 2014, dated 2019)

Experiments:
[1] = target: T1, human Androgen Receptor (AR) (Homo sapiens, UniProt P10275); assay: Androgen Receptor-Mediated Transcriptional Assay; assay type: cell-based; conditions: CV-1 cells transiently transfected with full length human AR and ARE-luciferase, 16-18 hours incubation
T1 construct: transiently transfected in T225 cm^2 flasks with a full length human Androgen Receptor (AR) cDNA; expressed in transfected cells; host or cells: CV-1 cells (ATCC CCL-70), transiently transfected
T1 sequence (P10275 1-920): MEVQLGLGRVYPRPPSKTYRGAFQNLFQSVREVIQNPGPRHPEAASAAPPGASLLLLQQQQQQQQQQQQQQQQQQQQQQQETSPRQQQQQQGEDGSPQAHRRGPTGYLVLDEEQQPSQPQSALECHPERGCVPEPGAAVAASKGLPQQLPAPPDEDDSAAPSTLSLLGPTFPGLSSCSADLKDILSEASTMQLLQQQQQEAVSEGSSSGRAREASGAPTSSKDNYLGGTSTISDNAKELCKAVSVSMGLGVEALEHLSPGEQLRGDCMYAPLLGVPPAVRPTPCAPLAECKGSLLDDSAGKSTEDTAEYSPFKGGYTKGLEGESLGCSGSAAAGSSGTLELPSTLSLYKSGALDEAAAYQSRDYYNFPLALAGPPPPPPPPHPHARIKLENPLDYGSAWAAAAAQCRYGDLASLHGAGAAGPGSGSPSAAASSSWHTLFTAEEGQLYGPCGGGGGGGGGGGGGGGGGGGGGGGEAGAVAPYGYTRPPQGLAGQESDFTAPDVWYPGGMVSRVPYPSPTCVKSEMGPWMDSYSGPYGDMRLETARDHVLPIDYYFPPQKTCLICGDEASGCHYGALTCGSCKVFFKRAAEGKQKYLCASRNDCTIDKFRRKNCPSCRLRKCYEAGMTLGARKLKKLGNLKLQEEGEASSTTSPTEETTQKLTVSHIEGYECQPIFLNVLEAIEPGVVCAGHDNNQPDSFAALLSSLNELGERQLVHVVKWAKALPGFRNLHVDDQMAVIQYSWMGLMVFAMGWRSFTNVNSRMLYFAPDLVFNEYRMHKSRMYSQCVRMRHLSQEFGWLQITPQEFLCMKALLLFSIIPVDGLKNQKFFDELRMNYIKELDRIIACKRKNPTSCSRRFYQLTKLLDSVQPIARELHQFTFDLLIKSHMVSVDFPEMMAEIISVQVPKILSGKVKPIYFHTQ
Protocol: Androgen Receptor-Mediated Transcriptional Assay Summary
CV-1 cells (American Tissue Culture Collection cat# CCL-70) were expanded in Growth Media and transiently transfected in T225 cm^2 flasks with a full length human Androgen Receptor (AR) cDNA in the pcDNA3 expression vector and a human Androgen Response Element (ARE)-luciferase cDNA in the pGL3 vector (both from Invitrogen). DNA (μg) and Lipofectamine (μl) at a ratio of 1:3 were incubated with the cells in a total volume of 55 mL Basal Media for 4 hours. Cells were harvested by trypsinization and frozen back (−150° C. cryomed) at a concentration of 4.3 million cells/mL.
On the day of the assay, frozen cells were thawed and re-suspended in Re-suspension Media and plated at 40,000 cells/well (in 100 μL volume) in 96 well white plates and were incubated for at least 4 h at 37° C., 5% CO2. After incubation, cells were treated with the compounds to be screened. 10 mM stocks of the compounds were serially diluted 1:10 in 100% DMSO followed by an additional 1:100 dilution in Assay Media. These dilution series were added to the cell plates resulting in a further 1:10 dilution and a final % DMSO of 0.1%. The vehicle control wells also contained this dilution of DMSO and the positive control wells contained […] (DHT) as an AR agonist at final concentration of 0.3 nM in 0.1% DMSO. Cells were incubated for 16-18 hours at 37° C. and 5% CO2. Then the culture media was removed from and the cells were lysed in 20 μL of cell lysis reagent for 5 minutes at room temperature. 50 μL of luciferase reagent was added to each well and luminescence, over 5 seconds, was measured.
EC50 (half maximal effective concentration) was calculated from concentration series plots which generated sigmoidal curves. Xlfit software was used to plot the best fit of the % effect vs concentration and to calculate the EC50.

[2] = DSC profile of the crystalline form; assay type: physicochemical; conditions: demonstrated by the high DSC melting point and DSC profile
Protocol: DSC measurements were performed with a Discovery DSC (TA instruments) equipped with a refrigerated cooling accessory. Approximately 2-5 mg of solid sample was weighed into a standard/Tzero aluminum pan and non-hermetically sealed. The sample was placed in a cell with continuous dry nitrogen purge (50 mL/min) and heated from 25° C. to 250° C. at 10° C./min heating rate. The cell constant was determined using indium and temperature calibration was performed using indium and tin as standards. The experimental data were analyzed using commercially available software (TA Universal Analysis 2000/Trios software, TA Instruments).
The characterization data disclosed herein confirms the crystalline nature of the 6-[(4R)-4-methyl-1,1-dioxido-1,2,6-thiadiazinan-2-yl]isoquinoline-1-carbonitrile free base Form (1) material and, as such, that it is a useful form for pharmaceutical development. For example, crystalline materials are generally considered to be an advantageous form for drug substance manufacturing because, for example, they are more easily purified, can be prepared with higher yields, have improved filtration and drying characteristics and improved flow and handling characteristics.

| Molecule | EC50 ([1]; Compounds 1-22) [nM] | other results |
| --- | --- | --- |
| 6-[(4S)-4-(3-methylphenyl)-1,1-dioxido-1,2,6-thiadiazinan-2-yl]isoquinoline-1-carbonitrile [Compound 20] | 8 |  |
| 6-[(4S)-4-ethyl-1,1-dioxido-1,2,6-thiadiazinan-2-yl]isoquinoline-1-carbonitrile [Compound 21] | 8 |  |
| 6-{(2R,5R)-2-[(1R)-1-hydroxyethyl]-5-methylpyrrolidin-1-yl}isoquinoline-1-carbonitrile [Compound 31] |  | EC50 ([1]; Compounds 23-39): 474 nM |
| C[C@@H]1CNS(=O)(=O)N(c2ccc3c(C#N)nccc3c2)C1 [6-[(4R)-4-methyl-1,1-dioxido-1,2,6-thiadiazinan-2-yl]isoquinoline-1-carbonitrile] |  | hygroscopic nature [2]: non-hygroscopic; thermal stability [2]: thermal stability |
| C[C@H]1CN(C)S(=O)(=O)N1c1ccc2c(C#N)nccc2c1 [Compound 5] | 5 |  |
